Laboratory results taken from BigSolDB 2.1.

COC(=O)[C@@H](N)CS.Cl
Details	solubility (mole fraction)
in 1,4-dioxane, 288.15 K	0.00083
in 1,4-dioxane, 293.15 K	0.001
in 1,4-dioxane, 298.15 K	0.0013
in 1,4-dioxane, 303.15 K	0.00147
in 1,4-dioxane, 308.15 K	0.00184
in 1,4-dioxane, 313.15 K	0.00211
in 1,4-dioxane, 318.15 K	0.00232
in 1,4-dioxane, 323.15 K	0.00269
in 1,4-dioxane, 328.15 K	0.00305
in 1,4-dioxane, 333.15 K	0.00349
in 2-butanone, 283.15 K	0.00065
in 2-butanone, 288.15 K	0.00084
in 2-butanone, 293.15 K	0.00108
in 2-butanone, 298.15 K	0.00132
in 2-butanone, 303.15 K	0.00164
in 2-butanone, 308.15 K	0.00192
in 2-butanone, 313.15 K	0.00225
in 2-butanone, 318.15 K	0.0025
in 2-butanone, 323.15 K	0.00333
in 2-butanone, 328.15 K	0.00418
in 2-butanone, 333.15 K	0.00573
in acetone, 283.15 K	0.00062
in acetone, 288.15 K	0.00073
in acetone, 293.15 K	0.00082
in acetone, 298.15 K	0.00087
in acetone, 303.15 K	0.00093
in acetone, 308.15 K	0.00101
in acetone, 313.15 K	0.00111
in acetone, 318.15 K	0.00124
in acetone, 323.15 K	0.00152
in acetonitrile, 283.15 K	0.00021
in acetonitrile, 288.15 K	0.00029
in acetonitrile, 293.15 K	0.00032
in acetonitrile, 298.15 K	0.0004
in acetonitrile, 303.15 K	0.00043
in acetonitrile, 308.15 K	0.0005
in acetonitrile, 313.15 K	0.00062
in acetonitrile, 318.15 K	0.00091
in acetonitrile, 323.15 K	0.00098
in acetonitrile, 328.15 K	0.00104
in acetonitrile, 333.15 K	0.00123
in dichloromethane, 283.15 K	5e-05
in dichloromethane, 288.15 K	7e-05
in dichloromethane, 293.15 K	9e-05
in dichloromethane, 298.15 K	0.00011
in dichloromethane, 303.15 K	0.00013
in ethanol, 283.15 K	0.0232
in ethanol, 288.15 K	0.0257
in ethanol, 293.15 K	0.029
in ethanol, 298.15 K	0.0337
in ethanol, 303.15 K	0.0428
in ethanol, 308.15 K	0.0471
in ethanol, 313.15 K	0.0536
in ethanol, 318.15 K	0.0622
in ethanol, 323.15 K	0.0722
in ethanol, 328.15 K	0.0864
in ethanol, 333.15 K	0.1
in ethyl acetate, 283.15 K	7e-05
in ethyl acetate, 288.15 K	0.0001
in ethyl acetate, 293.15 K	0.00012
in ethyl acetate, 298.15 K	0.00015
in ethyl acetate, 303.15 K	0.00018
in ethyl acetate, 308.15 K	0.00023
in ethyl acetate, 313.15 K	0.00027
in ethyl acetate, 318.15 K	0.0003
in ethyl acetate, 323.15 K	0.00032
in ethyl acetate, 328.15 K	0.00042
in ethyl acetate, 333.15 K	0.00052
in isobutanol, 283.15 K	0.00393
in isobutanol, 288.15 K	0.00437
in isobutanol, 293.15 K	0.00478
in isobutanol, 298.15 K	0.00541
in isobutanol, 303.15 K	0.00634
in isobutanol, 308.15 K	0.00718
in isobutanol, 313.15 K	0.0086
in isobutanol, 318.15 K	0.00972
in isobutanol, 323.15 K	0.0125
in isobutanol, 328.15 K	0.0162
in isobutanol, 333.15 K	0.0196
in isopropanol, 283.15 K	0.0036
in isopropanol, 288.15 K	0.00389
in isopropanol, 293.15 K	0.00422
in isopropanol, 298.15 K	0.00512
in isopropanol, 303.15 K	0.00585
in isopropanol, 308.15 K	0.00648
in isopropanol, 313.15 K	0.00806
in isopropanol, 318.15 K	0.0097
in isopropanol, 323.15 K	0.0127
in isopropanol, 328.15 K	0.0153
in isopropanol, 333.15 K	0.0188
in methanol, 283.15 K	0.0906
in methanol, 288.15 K	0.0944
in methanol, 293.15 K	0.106
in methanol, 298.15 K	0.114
in methanol, 303.15 K	0.127
in methanol, 308.15 K	0.139
in methanol, 313.15 K	0.155
in methanol, 318.15 K	0.168
in methanol, 323.15 K	0.187
in methanol, 328.15 K	0.212
in methanol, 333.15 K	0.257
in n-butanol, 283.15 K	0.00537
in n-butanol, 288.15 K	0.00599
in n-butanol, 293.15 K	0.0067
in n-butanol, 298.15 K	0.00847
in n-butanol, 303.15 K	0.0106
in n-butanol, 308.15 K	0.0124
in n-butanol, 313.15 K	0.0136
in n-butanol, 318.15 K	0.0164
in n-butanol, 323.15 K	0.0198
in n-butanol, 328.15 K	0.0238
in n-butanol, 333.15 K	0.0306
in n-pentanol, 283.15 K	0.0039
in n-pentanol, 288.15 K	0.00462
in n-pentanol, 293.15 K	0.0054
in n-pentanol, 298.15 K	0.00662
in n-pentanol, 303.15 K	0.00824
in n-pentanol, 308.15 K	0.00924
in n-pentanol, 313.15 K	0.0111
in n-pentanol, 318.15 K	0.0125
in n-pentanol, 323.15 K	0.0149
in n-pentanol, 328.15 K	0.0187
in n-pentanol, 333.15 K	0.0236
in n-propanol, 283.15 K	0.00805
in n-propanol, 288.15 K	0.00883
in n-propanol, 293.15 K	0.0106
in n-propanol, 298.15 K	0.0124
in n-propanol, 303.15 K	0.0145
in n-propanol, 308.15 K	0.0161
in n-propanol, 313.15 K	0.0193
in n-propanol, 318.15 K	0.0219
in n-propanol, 323.15 K	0.0272
in n-propanol, 328.15 K	0.0306
in n-propanol, 333.15 K	0.0384
in sec-butanol, 283.15 K	0.00252
in sec-butanol, 288.15 K	0.00265
in sec-butanol, 293.15 K	0.00283
in sec-butanol, 298.15 K	0.00372
in sec-butanol, 303.15 K	0.00416
in sec-butanol, 308.15 K	0.00455
in sec-butanol, 313.15 K	0.00513
in sec-butanol, 318.15 K	0.0063
in sec-butanol, 323.15 K	0.0082
in sec-butanol, 328.15 K	0.00958
in sec-butanol, 333.15 K	0.0112
